What was measured:
Type in all cases: in vivo, rat
[1] = test system: ischemic rats (stroke); experiment: Battery of neurological functional tests (NSS, Rotarod, footfault, adhesive removal, body weight) after stroke; conditions: Group 3: iv at one day and two days after stroke; middle aged rats; vs control
Method: Administration of nitric oxide donor compound (DETA/NO) to normal and ischemic rats promotes neurogenesis in non-ischemic and ischemic brains. Since then, additional experiments have been performed to test the hypothesis that neurogenesis induced by DETA/NO promotes functional improvement after stroke; the data is provided herewith. Animals were administered (iv/ip) DETA/NO at one day (Group 1) or seven days (Group 2) after induction of stroke and followed by daily injection (ip) of DETA/NO over a period of seven days. Another NO donor compound (SNAP) was administered (iv) to ischemic rats at one day and two days after stroke (Group 3). Young (3 month old) rats were used in Groups 1 and 2. Middle aged rats (10 to 12 months old) were used in Group 3. A battery of neurological functional tests were measured from two days to forty-two days after stroke. These tests included 1) Neurological severity score (NSS) which measures motor, sensory and reflex functions and is similar to the contralateral neglect testing described in humans. The higher the score, the more severe the injury; 2) Rotarod test measures fore and hindlimb motor coordination and balance. Data are presented as percentage of baseline values; 3) Footfault test measures fore and hindlimb motor coordination. The higher the number, the more severe the injury; 4) Adhesive removal test measures sensorimotor impairments. Data are presented as time (seconds). The longer the time period, the more severe the injury; 5) Animal body weight.

[2] = test system: ischemic rats (MCA occlusion); experiment: Behavior tests (foot-fault, adhesive removal) and body weight after MCA occlusion
Method: (§1) The MCA was occluded by placement of an embolus at the origin of the MCA.
(§2) The ischemic rats (n=9) were treated with the same volume of saline as a control group. Rats received intraperitoneal injection of BrdU (50 mg/kg) 24 hours after ischemia and daily intraperitoneal injection of BrdU for 14 consecutive days. All rats were sacrificed 28 days after ischemia.

[3] = test system: TuJ1 immunoreactive cells; experiment: TuJ1 immunoreactivity 28 days after ischemia; conditions: 2 or 5 mg/kg; vs contralateral hemisphere and saline treated ischemic rats
Method: For BrdU immunostaining, DNA was first denatured by incubating brain sections (6 μm) in 50% formamide 2×SSC at 65° C. for 2 hours and then in 2 N HCL at 37° C. for 30 minutes. Sections were then rinsed with Tris buffer and treated with 1% of H2O2 to block endogenous peroxidase. Sections were incubated with a primary antibody to BrdU (1:100) at room temperature for 1 hour and then incubated with biotinylated secondary antibody (1:200, Vector, Burlingame, Calif.) for 1 hour. Reaction products were detected using 3'3'-diaminobenzidine-tetrahydrochloride (DAB, Sigma). For TuJ1 immunostaining, coronal sections were incubated with the antibody against TuJ1 (1:1000) at 4° C. overnight and then incubated with a biotinylated horse anti-mouse immunoglobulin antibody at room temperature for 30 minutes. Reaction products were detected with DAB. BrdU immunostained sections were digitized using a 40× objective (Olympus BX40) via the MCID computer imaging analysis system (Imaging Research, St. Catharines, Canada). BrdU immunoreactive nuclei were counted on a computer monitor to improve visualization and in one focal plane to avoid over-sampling. Structures were sampled by analyzing entire structures on each section (SVZ and dentate gyrus). […] To examine the effects of […] on neurons, TuJ1 immunoreactivity was measured 28 days after ischemia.

[4] = test system: progenitor cells in the dentate gyrus and subventricular zone (SVZ); experiment: Cell proliferation (BrdU immunoreactive cells) in ischemic rats treated with VIAGRA; conditions: 28 days after ischemia, vs saline
Method: as §1
For BrdU immunostaining, DNA was first denatured by incubating brain sections (6 μm) in 50% formamide 2×SSC at 65° C. for 2 hours and then in 2 N HCL at 37° C. for 30 minutes. Sections were then rinsed with Tris buffer and treated with 1% of H2O2 to block endogenous peroxidase. Sections were incubated with a primary antibody to BrdU (1:100) at room temperature for 1 hour and then incubated with biotinylated secondary antibody (1:200, Vector, Burlingame, Calif.) for 1 hour. Reaction products were detected using 3′3′-diaminobenzidine-tetrahydrochloride (DAB, Sigma). For TuJ1 immunostaining, coronal sections were incubated with the antibody against TuJ1 (1:1000) at 4° C. overnight and then incubated with a biotinylated horse anti-mouse immunoglobulin antibody at room temperature for 30 minutes. Reaction products were detected with DAB.
BrdU immunostained sections were digitized using a 40× objective (Olympus BX40) via the MCID computer imaging analysis system (Imaging Research, St. Catharines, Canada). BrdU immunoreactive nuclei were counted on a computer monitor to improve visualization and in one focal plane to avoid over-sampling. Structures were sampled by analyzing entire structures on each section (SVZ and dentate gyrus). All BrdU immunoreactive-positive nuclei in these areas are presented as the number of the BrdU immunoreactive cells/mm^2 and data shown are mean±SE. Density for the selected several sections was averaged to obtain a mean density value for each animal. For measurements of TuJ1 immunoreactivity, a threshold was applied to each digitized image (628×480 μm^2) for ensuring that the numbers of TuJ1 immunostained pixels were representative of the original TuJ1 immunoreactive patterns. All objects with fewer than 5 pixels were eliminated from measurements. Data are presented as a percentage of area, in which the number of TuJ1 immunostained pixels was divided by the total number of pixels in the area (628×480 μm^2). […]

[5] = test system: focal cerebral ischemia (MCA occlusion); experiment: Infarct volume 28 days after ischemia
Method: as §1, §2

| SMILES | motor and sensorimotor functions (Rotarod, footfault, Adhesive removal tests) [1] | animal body weight loss ([2]; 2 mg/kg or 5 mg/kg initiated at 2 hours) | performance on the foot-fault test and the adhesive removal test ([2]; 2 mg/kg or 5 mg/kg initiated at 2 hours of onset of ischemia, during 2 to 21 days, vs saline) | foot-fault and adhesive removal tests ([2]; 2 mg/kg starting at 24 hours after onset of ischemia, during 7 to 28 days) | body weight loss ([2]; 2 mg/kg starting at 24 hours, at 4, 7 14, 21 and 28 days after ischemia) | TuJ1 immunoreactive cells in the ipsilateral SVZ and striatum [3] | numbers of BrdU immunoreactive cells in the ipsilateral SVZ ([4]; 2 mg/kg) | numbers of BrdU immunoreactive cells in the SVZ of both hemispheres ([4]; 5 mg/kg) | numbers of BrdU immunoreactive cells in the dentate gyrus of both hemispheres ([4]; oral 2 or 5 mg/kg initiated at 2 or 24 hours after stroke) | infarct volume 28 days after ischemia ([5]; 2 mg/kg starting at 24 hours, vs control group) | infarct volumes measured 28 days after ischemia ([5]; 2 or 5 mg/kg initiated at 2 hours, vs saline) | % of infarct volume at 28 days (Mean ± SE) ([5]; group 1: 2 h after MCAo, 2 mg/kg oral × 7days) [%] | % of infarct volume at 28 days (Mean ± SE) ([5]; group 2: 2 h after MCAo, 5 mg/kg oral × 7days) [%] | % of infarct volume at 28 days (Mean ± SE) ([5]; group 3: 24 h after MCAo, 2 mg/kg oral × 7days) [%] |
| --- | --- | --- | --- | --- | --- | --- | --- | --- | --- | --- | --- | --- | --- | --- |
| CC(=O)N[C@H](C(=O)O)C(C)(C)SN=O (racemic) [SNAP, S-nitroso-N-acetylpenicillamine] | significant improvements | – | – | – | – | – | – | – | – | – | – | – | – | – |
| CCCc1nn(C)c2c(=O)[nH]c(-c3cc(S(=O)(=O)N4CCN(C)CC4)ccc3OCC)nc12 [VIAGRA™, sildenafil] | – | significantly reduced | significantly improved performance | significant (p<0.05) improvements | significant (p<0.05) reduction | significantly (p<0.05) increased | significantly (p<0.05) increased | significantly (p<0.05) increased | significant (p<0.05) increases | no significant differences | not significantly different | 35.15 ± 3.25 | 37.67 ± 4.33 | 35.52 ± 0.93 |
